pIC50: −log10 of the molar value.

T2 sequence (P11712 whole entry): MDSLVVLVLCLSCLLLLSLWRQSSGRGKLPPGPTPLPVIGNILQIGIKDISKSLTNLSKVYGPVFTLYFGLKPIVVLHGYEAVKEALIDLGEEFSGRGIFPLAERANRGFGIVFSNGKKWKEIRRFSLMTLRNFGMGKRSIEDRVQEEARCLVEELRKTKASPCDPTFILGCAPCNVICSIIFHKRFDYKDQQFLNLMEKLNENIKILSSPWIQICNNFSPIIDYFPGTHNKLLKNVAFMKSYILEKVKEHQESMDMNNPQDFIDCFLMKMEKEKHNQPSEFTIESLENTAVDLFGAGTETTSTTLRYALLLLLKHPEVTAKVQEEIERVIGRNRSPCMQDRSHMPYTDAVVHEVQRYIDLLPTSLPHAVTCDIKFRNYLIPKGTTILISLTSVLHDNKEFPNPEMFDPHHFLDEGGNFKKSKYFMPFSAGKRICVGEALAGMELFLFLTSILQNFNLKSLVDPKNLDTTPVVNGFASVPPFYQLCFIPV

System in the first series: not listed separately
In words: AUC (0 to 24 hrs) in mouse at 20 mg/kg, po. Format: ADME, organism-based. The arrangement: time < 24 hr, dose 20 mg/kg, route oral. To be noted: plasma.
As a reminder, the AUC(0-t) is exposure summed from dosing to a finite time, without extrapolation to infinity. Read a low AUC(0-t) as low exposure. Compound `COCCOc1ccccc1N1CCN(C(=O)C2(Oc3ccc(C(F)(F)F)cc3)CCCN(C(=O)c3cnccc3C(F)(F)F)C2)CC1.Cl` (single isomer, unassigned) yielded an area under the curve AUC(0-t) at 24 h of 1.1 µM·h.

In the next series the target is T1, Cytochrome P450 2D6 (Homo sapiens, UniProt P10635). Briefly: Inhibition of CYP2D6 (unknown origin) compound co-incubated with substrate. Format: ADME.
T1 sequence (P10635 whole entry): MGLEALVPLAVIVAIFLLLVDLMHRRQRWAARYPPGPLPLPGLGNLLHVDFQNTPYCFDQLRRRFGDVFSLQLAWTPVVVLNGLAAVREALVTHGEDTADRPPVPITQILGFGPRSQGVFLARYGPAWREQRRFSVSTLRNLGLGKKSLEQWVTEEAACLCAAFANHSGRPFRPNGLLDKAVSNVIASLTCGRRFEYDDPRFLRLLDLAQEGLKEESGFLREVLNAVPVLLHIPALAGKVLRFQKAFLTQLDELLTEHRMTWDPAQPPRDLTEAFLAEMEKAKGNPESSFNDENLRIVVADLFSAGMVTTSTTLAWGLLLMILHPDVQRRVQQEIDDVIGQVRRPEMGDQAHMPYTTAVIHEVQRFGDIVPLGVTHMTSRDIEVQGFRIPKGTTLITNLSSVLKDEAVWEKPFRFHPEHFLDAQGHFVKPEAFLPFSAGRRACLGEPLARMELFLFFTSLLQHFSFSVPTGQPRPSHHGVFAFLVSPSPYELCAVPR
Details: not given
One may read the pIC50 as −log10 of the IC50, conventionally taken in molar units. For the compound `COCCOc1ccccc1N1CCN(C(=O)C2(Oc3ccc(C(F)(F)F)cc3)CCCN(C(=O)c3cnccc3C(F)(F)F)C2)CC1.Cl` (single isomer, unassigned), the pIC50 was below 4.52.

A further series has as its target T2, Cytochrome P450 2C9 (Homo sapiens, UniProt P11712). Briefly: Inhibition of CYP2C9 (unknown origin) compound preincubated with substrate. Format: ADME.
Details: not given
With `COCCOc1ccccc1N1CCN(C(=O)C2(Oc3ccc(C(F)(F)F)cc3)CCCN(C(=O)c3cnccc3C(F)(F)F)C2)CC1.Cl` (single isomer, unassigned), the pIC50 was below 4.52.

Another series deals with T2, Cytochrome P450 2C9. In words: Inhibition of CYP2C9 (unknown origin) compound co-incubated with substrate. Format: ADME.
Details: not given
For the compound `COCCOc1ccccc1N1CCN(C(=O)C2(Oc3ccc(C(F)(F)F)cc3)CCCN(C(=O)c3cnccc3C(F)(F)F)C2)CC1.Cl` (single isomer, unassigned), the negative-log IC50 (pIC50) is below 4.52.

A further series addresses T1, Cytochrome P450 2D6. In words: Inhibition of CYP2D6 (unknown origin) compound preincubated with substrate. Format: ADME.
Details: not given
`COCCOc1ccccc1N1CCN(C(=O)C2(Oc3ccc(C(F)(F)F)cc3)CCCN(C(=O)c3cnccc3C(F)(F)F)C2)CC1.Cl` (single isomer, unassigned) had a pIC50 below 4.52.

System in the next series: not listed separately
In words: Tmax in mouse at 20 mg/kg, po. Format: ADME, organism-based. Also on record: dose 20 mg/kg, route oral. The conditions noted are these: in vivo.
What is called Tmax is the time at which the peak concentration occurs. For `COCCOc1ccccc1N1CCN(C(=O)C2(Oc3ccc(C(F)(F)F)cc3)CCCN(C(=O)c3cnccc3C(F)(F)F)C2)CC1.Cl` (single isomer, unassigned), the time to peak (Tmax) stood at 1 h.

System in a further series: not listed separately
In words: AUC (0 to 24 hrs) in mouse at 20 mg/kg, iv. Format: ADME, organism-based. The arrangement: time < 24 hr, dose 20 mg/kg, route intravenous. To be noted: plasma.
Consider `COCCOc1ccccc1N1CCN(C(=O)C2(Oc3ccc(C(F)(F)F)cc3)CCCN(C(=O)c3cnccc3C(F)(F)F)C2)CC1.Cl` (single isomer, unassigned), for which the AUC(0-t) at 24 h is 3.4 µM·h.

The target of another series is Tumour suppressor p53/oncoprotein Mdm2 (Homo sapiens, UniProt Q00987). In words: Inhibition of human MDM2/p53 interaction by fluorescence polarization assay.
Sequence of Tumour suppressor p53/oncoprotein Mdm2 (P04637 whole entry): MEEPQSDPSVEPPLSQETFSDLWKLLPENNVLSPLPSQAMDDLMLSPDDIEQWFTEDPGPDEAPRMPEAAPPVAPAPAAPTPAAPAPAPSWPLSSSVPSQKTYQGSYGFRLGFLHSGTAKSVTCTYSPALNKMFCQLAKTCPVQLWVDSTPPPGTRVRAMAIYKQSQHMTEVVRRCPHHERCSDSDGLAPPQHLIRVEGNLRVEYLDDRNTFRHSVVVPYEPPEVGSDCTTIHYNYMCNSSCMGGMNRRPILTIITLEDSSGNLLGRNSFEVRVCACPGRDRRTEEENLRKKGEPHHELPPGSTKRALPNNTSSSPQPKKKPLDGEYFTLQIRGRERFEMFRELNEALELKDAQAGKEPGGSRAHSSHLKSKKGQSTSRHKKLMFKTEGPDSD
Sequence of Tumour suppressor p53/oncoprotein Mdm2 (Q00987 whole entry): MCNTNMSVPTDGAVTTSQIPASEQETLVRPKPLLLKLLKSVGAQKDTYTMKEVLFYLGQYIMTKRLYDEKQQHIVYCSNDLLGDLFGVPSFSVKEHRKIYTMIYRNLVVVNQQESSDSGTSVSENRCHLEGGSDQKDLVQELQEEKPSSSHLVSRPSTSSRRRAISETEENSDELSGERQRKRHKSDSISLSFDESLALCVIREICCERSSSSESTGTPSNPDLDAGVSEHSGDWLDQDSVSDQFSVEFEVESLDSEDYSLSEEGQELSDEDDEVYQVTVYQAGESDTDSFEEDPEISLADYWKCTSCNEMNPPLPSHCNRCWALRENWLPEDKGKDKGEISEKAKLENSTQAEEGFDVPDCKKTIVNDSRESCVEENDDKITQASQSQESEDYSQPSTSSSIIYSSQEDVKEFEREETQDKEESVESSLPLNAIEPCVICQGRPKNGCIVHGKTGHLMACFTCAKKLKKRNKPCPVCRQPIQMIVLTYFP
Details: not given
Format: protein assay. For orientation: Fluorescence polarisation rises when a labelled molecule tumbles more slowly, as on binding a larger partner.
The compound `O=C(NCCc1ccccc1)C1(Oc2ccc(C(F)(F)F)cc2)CCCN(C(=O)C2(c3ccc(Cl)cc3)CC2)C1` (centres undefined) showed a pIC50 of 5.85. Same read-out and setting: the value for `O=C(c1cnccc1C(F)(F)F)N1CCCC(Oc2cccc(Cl)c2)(C(=O)N2CCN(c3ccccn3)CC2)C1` (centres undefined) was 5.28; that for `O=C(c1cnccc1C(F)(F)F)N1CCCC(Oc2ccc(Cl)cc2)(C(=O)N2CCN(c3ccccn3)CC2)C1` (centres undefined) was 5.17; that for `O=C(c1cnccc1C(F)(F)F)N1CCCC(Oc2ccc(F)cc2)(C(=O)N2CCN(c3ccccn3)CC2)C1` (centres undefined) was 5.22. For the compound `O=C(c1cnccc1C(F)(F)F)N1CCCC(Oc2ccc(Br)cc2)(C(=O)N2CCN(c3ccccn3)CC2)C1` (centres undefined), the pIC50 is 5.72.

On to `O=C(c1cnccc1C(F)(F)F)N1CCCC(Oc2ccc(Br)c(F)c2)(C(=O)N2CCN(c3ccccn3)CC2)C1` (centres undefined), for which the pIC50 is 5.54. Consider `O=C(c1cnccc1C(F)(F)F)N1CCCC(Oc2ccc(Cl)c(F)c2)(C(=O)N2CCN(c3ccccn3)CC2)C1` (centres undefined), for which the pIC50 is 5.85. In turn, `Cc1nc2cc(OC3(C(=O)N4CCN(c5ccccn5)CC4)CCCN(C(=O)c4cnccc4C(F)(F)F)C3)ccc2s1` (centres undefined) gave a pIC50 of 4.39.

The compound `O=C(c1cnccc1C(F)(F)F)N1CCCC(Oc2ccc(-c3ccccc3)cc2)(C(=O)N2CCN(c3ccccn3)CC2)C1` (centres undefined) had a pIC50 of 4.32. In turn, `COc1ccc(OC2(C(=O)N3CCN(c4ccccn4)CC3)CCCN(C(=O)c3cnccc3C(F)(F)F)C2)cc1` (centres undefined) had a pIC50 of 4.48.

Compound `Cc1ccc(OC2(C(=O)N3CCN(c4ccccn4)CC3)CCCN(C(=O)c3cnccc3C(F)(F)F)C2)cc1` (centres undefined) had a negative logarithm of the IC50 (pIC50) of 5.82. For `O=C(c1cnccc1C(F)(F)F)N1CCCC(Oc2ccc(C(F)(F)F)cc2)(C(=O)N2CCN(c3ccccn3)CC2)C1` (centres undefined), the pIC50 is 5.64. Consider `O=C(c1cnccc1C(F)(F)F)N1CCCC(Oc2ccc(C(F)(F)F)cc2)(C(=O)N2CCN(c3ccccc3)CC2)C1` (centres undefined), for which the pIC50 was 5.55. In the case of `O=C(c1cnccc1C(F)(F)F)N1CCCC(Oc2ccc(C(F)(F)F)cc2)(C(=O)N2CCN(c3ccncn3)CC2)C1` (centres undefined), the negative-log IC50 (pIC50) is 4.74. `O=C(c1cnccc1C(F)(F)F)N1CCCC(Oc2ccc(C(F)(F)F)cc2)(C(=O)N2CCN(c3ncccn3)CC2)C1` (centres undefined): the pIC50 was 4.46.

Take `O=C(c1cnccc1C(F)(F)F)N1CCCC(Oc2ccc(C(F)(F)F)cc2)(C(=O)N2CCN(C3CCCCC3)CC2)C1` (centres undefined): the pIC50 is 5.38.

`CC(=O)N1CCN(C(=O)C2(Oc3ccc(C(F)(F)F)cc3)CCCN(C(=O)c3cnccc3C(F)(F)F)C2)CC1` (centres undefined) showed a negative logarithm of the IC50 (pIC50) of 4.44. As to `CN1CCN(C(=O)C2(Oc3ccc(C(F)(F)F)cc3)CCCN(C(=O)c3cnccc3C(F)(F)F)C2)CC1` (centres undefined), the pIC50 is 4.92. The same measure, in the same setting: under `O=C(c1cnccc1C(F)(F)F)N1CCCC(Oc2ccc(C(F)(F)F)cc2)(C(=O)N2CCN(Cc3ccccc3)CC2)C1` (centres undefined) stands 4.41. The same measure, in the same setting: the value for `O=C(c1cnccc1C(F)(F)F)N1CCCC(Oc2ccc(C(F)(F)F)cc2)(C(=O)N2CC=C(c3ccccc3)CC2)C1` (centres undefined) was 5.85; that for `O=C(c1cnccc1C(F)(F)F)N1CCCC(Oc2ccc(C(F)(F)F)cc2)(C(=O)N2CCC(c3ccccn3)C2)C1` (centres undefined) was 5.43; that for `O=C(c1cnccc1C(F)(F)F)N1CCCC(Oc2ccc(C(F)(F)F)cc2)(C(=O)N2CCc3ccccc3C2)C1` (centres undefined) was 5.85. Still for that read-out and setting: the value for `O=C(c1cnccc1C(F)(F)F)N1CCCC(Oc2ccc(C(F)(F)F)cc2)(C(=O)NCc2ccc(Cl)cc2)C1` (centres undefined) was 5.82; that for `O=C(c1cnccc1C(F)(F)F)N1CCCC(Oc2ccc(C(F)(F)F)cc2)(C(=O)NCCc2ccccc2)C1` (centres undefined) was 5.46. In the case of `COc1cccc(N2CCN(C(=O)C3(Oc4ccc(C(F)(F)F)cc4)CCCN(C(=O)c4cnccc4C(F)(F)F)C3)CC2)c1` (centres undefined), the pIC50 is below 4.30.

In the case of `COc1ccc(N2CCN(C(=O)C3(Oc4ccc(C(F)(F)F)cc4)CCCN(C(=O)c4cnccc4C(F)(F)F)C3)CC2)cc1` (centres undefined), the pIC50 is 4.64. `O=C(c1cnccc1C(F)(F)F)N1CCCC(Oc2ccc(C(F)(F)F)cc2)(C(=O)N2CCN(c3ccccc3O)CC2)C1` (centres undefined) gave a pIC50 of 6.01. As for `CCOc1ccccc1N1CCN(C(=O)C2(Oc3ccc(C(F)(F)F)cc3)CCCN(C(=O)c3cnccc3C(F)(F)F)C2)CC1` (centres undefined), the pIC50 is 6.23.

`CC(=O)Nc1ccccc1N1CCN(C(=O)C2(Oc3ccc(C(F)(F)F)cc3)CCCN(C(=O)c3cnccc3C(F)(F)F)C2)CC1` (centres undefined) gave a negative-log IC50 (pIC50) of 6.42. In turn, `CCC(=O)Nc1ccccc1N1CCN(C(=O)C2(Oc3ccc(C(F)(F)F)cc3)CCCN(C(=O)c3cnccc3C(F)(F)F)C2)CC1` (centres undefined) showed a pIC50 of 6.43. Still for that read-out and setting: the value for `COCC(=O)Nc1ccccc1N1CCN(C(=O)C2(Oc3ccc(C(F)(F)F)cc3)CCCN(C(=O)c3cnccc3C(F)(F)F)C2)CC1` (centres undefined) was 6.27; that for `CN(C)CC(=O)Nc1ccccc1N1CCN(C(=O)C2(Oc3ccc(C(F)(F)F)cc3)CCCN(C(=O)c3cnccc3C(F)(F)F)C2)CC1` (centres undefined) was 6.17; that for `CN(C)CCC(=O)Nc1ccccc1N1CCN(C(=O)C2(Oc3ccc(C(F)(F)F)cc3)CCCN(C(=O)c3cnccc3C(F)(F)F)C2)CC1` (centres undefined) was 6.23.

`CN(C)CCCC(=O)Nc1ccccc1N1CCN(C(=O)C2(Oc3ccc(C(F)(F)F)cc3)CCCN(C(=O)c3cnccc3C(F)(F)F)C2)CC1` (centres undefined): the negative-log IC50 (pIC50) is 5.97. `Cc1cc(CC(=O)Nc2ccccc2N2CCN(C(=O)C3(Oc4ccc(C(F)(F)F)cc4)CCCN(C(=O)c4cnccc4C(F)(F)F)C3)CC2)on1` (centres undefined) gave a pIC50 of 6.20. `O=C(CC1NC(=O)NC1=O)Nc1ccccc1N1CCN(C(=O)C2(Oc3ccc(C(F)(F)F)cc3)CCCN(C(=O)c3cnccc3C(F)(F)F)C2)CC1` (centres undefined) gave a pIC50 of 6.57. Regarding `O=C(c1ccccc1C(F)(F)F)N1CCCC(Oc2ccc(C(F)(F)F)cc2)(C(=O)N2CCN(c3ccccn3)CC2)C1` (centres undefined), the pIC50 is 5.19.

Take `O=C(N1CCN(c2ccccn2)CC1)C1(Oc2ccc(C(F)(F)F)cc2)CCCN(Cc2ccccc2C(F)(F)F)C1` (centres undefined): the pIC50 is 4.85.

On to `CCCN1CCCC(Oc2ccc(C(F)(F)F)cc2)(C(=O)N2CCN(c3ccccn3)CC2)C1` (centres undefined), for which the pIC50 was 5.19. For the compound `CC(C)(C)CCN1CCCC(Oc2ccc(C(F)(F)F)cc2)(C(=O)N2CCN(c3ccccn3)CC2)C1` (centres undefined), the pIC50 was 5.16. For `O=C(N1CCN(c2ccccn2)CC1)C1(Oc2ccc(C(F)(F)F)cc2)CCCN(CC2CCCCC2)C1` (centres undefined), the pIC50 was 5.29. Turning to `CC(C)(C)CC(=O)N1CCCC(Oc2ccc(C(F)(F)F)cc2)(C(=O)N2CCN(c3ccccn3)CC2)C1` (centres undefined), the pIC50 is 5.52. For the compound `CC(C)(C)C(=O)N1CCCC(Oc2ccc(C(F)(F)F)cc2)(C(=O)N2CCN(c3ccccn3)CC2)C1` (centres undefined), the pIC50 is 4.66. `O=C(N1CCN(c2ccccn2)CC1)C1(Oc2ccc(C(F)(F)F)cc2)CCCN(C(=O)C2(c3ccc(Cl)cc3)CC2)C1` (centres undefined) gave a pIC50 of 5.72. Same read-out and setting: under `O=C(N1CCN(c2ccccn2)CC1)C1(Oc2ccc(C(F)(F)F)cc2)CCCN(S(=O)(=O)c2ccccc2)C1` (centres undefined) stands 4.59.

`O=C(N1CCN(c2ccccn2)CC1)C1(Oc2ccc(C(F)(F)F)cc2)CCCN(S(=O)(=O)c2ccccc2C(F)(F)F)C1` (centres undefined) had a negative-log IC50 (pIC50) of 4.39. The same measure, in the same setting: under `O=C(N1CCN(c2ccccn2)CC1)C1(Oc2ccc(C(F)(F)F)cc2)CCCN(S(=O)(=O)c2ccccc2Cl)C1` (centres undefined) stands 4.51; under `O=C(N1CCN(c2ccccn2)CC1)C1(Oc2ccc(C(F)(F)F)cc2)CCCN(S(=O)(=O)c2ccc(Cl)cc2)C1` (centres undefined), 4.30.

On to `CC(C)S(=O)(=O)N1CCCC(Oc2ccc(C(F)(F)F)cc2)(C(=O)N2CCN(c3ccccn3)CC2)C1` (centres undefined), for which the pIC50 is 5.16. In turn, `O=C(c1cnccc1C(F)(F)F)N1CCCC(Oc2ccccc2Cl)(C(=O)N2CCN(c3ccccn3)CC2)C1` (centres undefined) showed a pIC50 of 4.68.

System in a further series: not listed separately
Briefly: Oral bioavailability in mouse at 20 mg/kg. Format: ADME, organism-based. The conditions noted are these: in vivo.
In general, bioavailability refers to dose-corrected exposure relative to a reference, in per cent. For the compound `COCCOc1ccccc1N1CCN(C(=O)C2(Oc3ccc(C(F)(F)F)cc3)CCCN(C(=O)c3cnccc3C(F)(F)F)C2)CC1.Cl` (single isomer, unassigned), the bioavailability came out at 32%.

System in a further series: not listed separately
In words: Cmax in mouse at 20 mg/kg, po. The conditions noted are these: in vivo. Format: ADME, organism-based. The arrangement: dose 20 mg/kg, route oral.
The term Cmax denotes the maximum level reached in the sampled fluid or tissue. As for `COCCOc1ccccc1N1CCN(C(=O)C2(Oc3ccc(C(F)(F)F)cc3)CCCN(C(=O)c3cnccc3C(F)(F)F)C2)CC1.Cl` (single isomer, unassigned), the peak level (Cmax) was 700 nM.
